# Where two headings read alike, the source gives them in different places.
# What was measured:
# COX-2 = target: T1, COX-2 (Ovis aries, UniProt P79208); test: Inhibition of purified COX-2 activity in vitro (PGE2 by enzymo-immunoassay); type: biochemical, ewe
# T1 construct: purified COX-2 from ewe placenta; purchased Cayman Chemicals; host or cells: ewe placenta (tissue-purified)
# T1 sequence (P79208 17-603): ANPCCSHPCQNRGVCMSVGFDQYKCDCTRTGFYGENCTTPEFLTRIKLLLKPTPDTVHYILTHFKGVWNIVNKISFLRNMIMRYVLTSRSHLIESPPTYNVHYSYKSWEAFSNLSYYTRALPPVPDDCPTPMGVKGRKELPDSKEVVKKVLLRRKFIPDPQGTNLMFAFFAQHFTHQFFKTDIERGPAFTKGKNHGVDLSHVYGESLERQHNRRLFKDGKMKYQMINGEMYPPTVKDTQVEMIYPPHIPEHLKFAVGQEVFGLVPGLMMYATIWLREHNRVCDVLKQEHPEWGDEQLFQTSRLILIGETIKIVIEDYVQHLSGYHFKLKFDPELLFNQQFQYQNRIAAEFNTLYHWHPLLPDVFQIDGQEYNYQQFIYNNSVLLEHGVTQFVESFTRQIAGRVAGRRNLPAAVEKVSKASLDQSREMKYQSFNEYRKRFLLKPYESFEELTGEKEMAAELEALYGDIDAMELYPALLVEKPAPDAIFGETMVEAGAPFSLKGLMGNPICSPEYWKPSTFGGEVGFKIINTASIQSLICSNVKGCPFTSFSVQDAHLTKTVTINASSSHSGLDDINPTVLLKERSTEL
# Procedure: (§1) Example compounds according to the invention were tested for their ability to inhibit COX-1 and/or COX-2 activities in vitro. Purified COX-1 from ram seminal vesicles and purified COX-2 from ewe placenta (both from Cayman Chemicals) were incubated for 10 minutes at 25° C. in the presence of their substrate, arachidonic acid (5 μM), with or without test compounds or standard inhibitors. Prostaglandin E2, the reaction product, was measured by enzymo-immunoassay (R&D Systems). Each individual value results from duplicate determinations. Final inhibition data are means±standard errors of at least (3) independent experiments performed on as many different days.
# COX-1 = target: T2, COX-1 (Ovis aries, UniProt P05979); test: Inhibition of purified COX-1 activity in vitro (PGE2 by enzymo-immunoassay); type: biochemical, ram; conditions: for % COX-1 inhibition: negative sign = inhibition
# T2 construct: Purified COX-1 from ram seminal vesicles; purchased Cayman Chemicals; host or cells: ram seminal vesicles (tissue-purified)
# T2 sequence (P05979 25-600): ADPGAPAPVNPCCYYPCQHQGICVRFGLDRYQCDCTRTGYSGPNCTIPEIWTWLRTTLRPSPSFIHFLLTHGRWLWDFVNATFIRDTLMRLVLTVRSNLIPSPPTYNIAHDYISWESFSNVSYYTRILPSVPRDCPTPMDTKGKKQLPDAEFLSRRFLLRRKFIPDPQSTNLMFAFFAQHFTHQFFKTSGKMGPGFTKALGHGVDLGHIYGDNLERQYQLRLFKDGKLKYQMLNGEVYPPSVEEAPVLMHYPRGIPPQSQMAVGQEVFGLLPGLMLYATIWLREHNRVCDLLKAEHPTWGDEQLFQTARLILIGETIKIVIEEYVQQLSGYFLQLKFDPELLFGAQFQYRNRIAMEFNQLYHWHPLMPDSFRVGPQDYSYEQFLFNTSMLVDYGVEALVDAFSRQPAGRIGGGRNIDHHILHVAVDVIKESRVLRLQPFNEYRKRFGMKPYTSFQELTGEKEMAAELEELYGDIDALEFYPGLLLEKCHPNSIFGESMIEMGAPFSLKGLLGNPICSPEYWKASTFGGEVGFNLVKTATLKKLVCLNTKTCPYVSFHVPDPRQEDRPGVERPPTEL
# Procedure: as §1
# [1] = concentration 1 μM, read-out: % COX-2 inhibition
compound,measurement,setting,value
"COc1ccc(-n2nc(C)nc2-c2ccc(S(C)(=O)=O)cc2)cc1OC [Example 14, 1-(3,4-dimethoxy-phenyl)-3-methyl-5-(4-methylsulfonyl-phenyl)-1H-1,2,4-triazole]",melting point,,186 °C
"CS(=O)(=O)c1ccc(-c2nc(C(F)(F)F)nn2-c2ccc(S(C)(=O)=O)cc2)cc1 [Example 26, 1,5-di-(4-methylsulfonyl-phenyl)-3-trifluoromethyl-1H-1,2,4-triazole]",melting point,,214 °C
"Cc1ccc(-n2nc(C)nc2-c2ccc(S(C)(=O)=O)cc2)cc1 [Example 4, 3-methyl-1-(4-methyl-phenyl)-5-(4-methylsulfonyl-phenyl)-1H-1,2,4-triazole]",melting point,,176 °C
"COc1ccc(Cn2nc(C(F)(F)F)nc2-c2ccc(S(C)(=O)=O)cc2)cc1OC [Example 23, 1-(3,4-dimethoxy-phenyl-methyl)-5-(4-methylsulfonyl-phenyl)-3-trifluoromethyl-1H-1,2,4-triazole]",melting point,,142 °C
"Cc1nc(-c2ccc(S(C)(=O)=O)cc2)n(-c2ccccc2Cl)n1 [Example 6, 1-(2-chloro-phenyl)-3-methyl-5-(4-methylsulfonyl-phenyl)-1H-1,2,4-triazole]",melting point,,170 °C
"CS(=O)(=O)c1ccc(-c2nc(C(F)(F)F)nn2C2CCCCC2)cc1 [Example 22, 1-(cyclohexyl)-5-(4-methylsulfonyl-phenyl)-3-trifluoromethyl-1H-1,2,4-triazole]",melting point,,136 °C
CS(=O)(=O)c1ccc(-c2nc(C(F)(F)F)nn2-c2cccnc2)cc1.Cl,melting point,,180 °C
"CS(=O)(=O)c1ccc(-c2nc(C(F)(F)F)nn2-c2ccc3c(c2)OCO3)cc1 [Example 28, 1-(3,4-methylenedioxy-phenyl)-5-(4-methylsulfonyl-phenyl)-3-trifluoromethyl-1H-1,2,4-triazole]",melting point,,185 °C
"CS(=O)(=O)Nc1ccc([N+](=O)[O-])cc1Oc1ccccc1 [Nimesulide, reference compound]",inhibition at 0.1 µM,COX-2; read-out: % COX-2 inhibition,23 ± 5.4%
same,inhibition at 1 µM,COX-2; read-out: % COX-2 inhibition,30 ± 3.2%
same,inhibition at 10 µM,COX-2; read-out: % COX-2 inhibition,50%
same,% COX-1 inhibition,COX-1; concentration 0.1 μM,+7 ± 6.6%
same,% COX-1 inhibition,COX-1; concentration 1 μM,+16 ± 12.2%
same,% COX-1 inhibition,COX-1; concentration 10 μM,+13 ± 8.3%
"Cc1nc(-c2ccc(S(C)(=O)=O)cc2)n(-c2ccc(Cl)cc2)n1 [Example 3, 1-(4-chloro-phenyl)-3-methyl-5-(4-methylsulfonyl-phenyl)-1H-1,2,4-triazole]",selective inhibition of COX-2 (in words),COX-2; concentration 1 μM,able to inhibit COX-2 selectively
same,inhibition at 1 µM,COX-2; [1],19 ± 2.6%
same,inhibition of COX-1 (in words),COX-1; concentration 1 μM,did not show any significant inhibition of COX-1
same,% COX-1 inhibition,COX-1; concentration 1 μM,−2 ± 5.7%
same,melting point,,186 °C
"Cc1nc(-c2ccc(S(C)(=O)=O)cc2)n(-c2cccc(Cl)c2)n1 [Example 7, 1-(3-chloro-phenyl)-3-methyl-5-(4-methylsulfonyl-phenyl)-1H-1,2,4-triazole]",melting point,,130 °C
"CS(=O)(=O)c1ccc(-c2nc(C(F)(F)F)nn2-c2ccc(F)cc2)cc1 [Example 20, 1-(4-fluoro-phenyl)-5-(4-methylsulfonyl-phenyl)-3-trifluoromethyl-1H-1,2,4-triazole]",melting point,,230 to 232 °C
"Cc1nc(-c2ccc(S(C)(=O)=O)cc2)n(-c2ccccc2)n1 [Example 5, 3-methyl-5-(4-methylsulfonyl-phenyl)-1-phenyl-1H-1,2,4-triazole]",melting point,,146 °C
"COc1ccc(-n2nc(C(F)(F)F)nc2-c2ccc(S(C)(=O)=O)cc2)cc1OC [Example 27, 1-(3,4-dimethoxy-phenyl)-5-(4-methylsulfonyl-phenyl)-3-trifluoromethyl-1H-1,2,4-triazole]",melting point,,140 °C
"Cc1nc(-c2ccc(S(C)(=O)=O)cc2)n(-c2ccc(F)cc2F)n1 [Example 11, 1-(2,4-difluoro-phenyl)-3-methyl-5-(4-methylsulfonyl-phenyl)-1H-1,2,4-triazole]",melting point,,160 °C
"COc1ccc(-n2nc(C)nc2-c2ccc(S(C)(=O)=O)cc2)cc1 [Example 10, 1-(4-methoxy-phenyl)-3-methyl-5-(4-methylsulfonyl-phenyl)-1H-1,2,4-triazole]",selective inhibition of COX-2 (in words),COX-2; concentration 1 μM,able to inhibit COX-2 selectively
same,inhibition at 1 µM,COX-2; [1],32 ± 4.5%
same,inhibition of COX-1 (in words),COX-1; concentration 1 μM,did not show any significant inhibition of COX-1
same,% COX-1 inhibition,COX-1; concentration 1 μM,−4 ± 14.6%
same,melting point,,128 °C
"CS(=O)(=O)c1ccc(-c2nc(C(F)(F)F)nn2-c2ccc(Cl)cc2)cc1 [Example 21, 1-(4-chloro-phenyl)-5-(4-methylsulfonyl-phenyl)-3-trifluoromethyl-1H-1,2,4-triazole]",melting point,,190 to 192 °C
"CS(=O)(=O)Nc1ccc(-n2nc(C(F)(F)F)nc2-c2ccc(S(C)(=O)=O)cc2)cc1 [Example 25, 1-(4-methylsulfonylamino-phenyl)-5-(4-methylsulfonyl-phenyl)-3-trifluoromethyl-1H-1,2,4-triazole]",selective inhibition of COX-2 (in words),COX-2; concentration 1 μM,able to inhibit COX-2 selectively
same,inhibition at 1 µM,COX-2; [1],31 ± 10%
same,inhibition of COX-1 (in words),COX-1; concentration 1 μM,did not show any significant inhibition of COX-1
same,% COX-1 inhibition,COX-1; concentration 1 μM,−5 ± 9%
same,melting point,,188 °C
"COc1ccc(-n2nc(C(F)(F)F)nc2-c2ccc(S(C)(=O)=O)cc2)cc1F [Example 33, 1-(3-fluoro-4-methoxy-phenyl)-5-(4-methylsulfonyl-phenyl)-3-trifluoromethyl-1H-1,2,4-triazole]",melting point,,180 °C
"Cc1nc(-c2ccc(S(C)(=O)=O)cc2)n(-c2ccc(N(C)C)cc2)n1 [Example 15, 1-(4-dimethylamino-phenyl)-3-methyl-5-(4-methylsulfonyl-phenyl)-1H-1,2,4-triazole]",selective inhibition of COX-2 (in words),COX-2; concentration 1 μM,able to inhibit COX-2 selectively
same,inhibition at 1 µM,COX-2; [1],18 ± 7%
same,inhibition of COX-1 (in words),COX-1; concentration 1 μM,did not show any significant inhibition of COX-1
same,% COX-1 inhibition,COX-1; concentration 1 μM,+2 ± 7.0%
same,melting point,,200 °C
"Cc1nc(-c2ccc(S(C)(=O)=O)cc2)n(-c2ccc(Br)cc2)n1 [Example 9, 1-(4-bromo-phenyl)-3-methyl-5-(4-methylsulfonyl-phenyl)-1H-1,2,4-triazole]",melting point,,188 °C
"COc1ccc(-n2nc(C(F)(F)F)nc2-c2ccc(S(N)(=O)=O)cc2)cc1 [Example 34, 1-(4-methoxy-phenyl)-5-(4-aminosulfonyl-phenyl)-3-trifluoromethyl-1H-1,2,4-triazole]",selective inhibition of COX-2 (in words),COX-2; concentration 1 μM,able to inhibit COX-2 selectively
same,inhibition at 1 µM,COX-2; [1],78 ± 2%
same,COX-2 inhibitory potency compared with nimesulide (in words),"COX-2; same concentration, 1 μM",even more potent
same,inhibition of COX-1 (in words),COX-1; concentration 1 μM,did not show any significant inhibition of COX-1
same,% COX-1 inhibition,COX-1; concentration 1 μM,−16 ± 10%
"COc1ccc(-n2nc(C(F)(F)F)nc2-c2ccc(S(C)(=O)=O)cc2Cl)cc1 [Example 24, 5-(2-chloro-4-methylsulfonyl-phenyl)-1-(4-methoxy-phenyl)-3-trifluoromethyl-1H-1,2,4-triazole]",melting point,,148 °C
"Cc1nc(-c2ccc(S(C)(=O)=O)cc2)n(-c2ccc(F)cc2)n1 [Example 2, 1-(4-fluoro-phenyl)-3-methyl-5-(4-methylsulfonyl-phenyl)-1H-1,2,4-triazole]",melting point,,180 °C
"Cc1nc(-c2ccc(S(C)(=O)=O)cc2)n(-c2ccc([N+](=O)[O-])cc2)n1 [Example 12, 3-methyl-5-(4-methylsulfonyl-phenyl)-1-(4-nitro-phenyl)-1H-1,2,4-triazole]",melting point,,180 °C
"Cc1nc(-c2ccc(S(C)(=O)=O)cc2)n(-c2ccc(F)c(F)c2)n1 [Example 13, 1-(3,4-difluoro-phenyl)-3-methyl-5-(4-methylsulfonyl-phenyl)-1H-1,2,4-triazole]",melting point,,194 °C

# — patent publication US6803380B1, “5-aryl-1h-1,2,4-triazole compounds as inhibitors of cyclooxygenase-2 and pharmaceutical compositions containing them” (Laboratoire Theramex, priority 1999, dated 2004)
